Tested on: leukemia cells from eight other ALL patients
Experiment: Dasatinib cell viability (MTS assay), primary cells of other ALL subsets
Assay type: cell-based
Conditions: Homo sapiens, 72 h; eight other ALL samples; highest tested concentration 1000 nM; 3 days

`Cc1nc(Nc2ncc(C(=O)Nc3c(C)cccc3Cl)s2)cc(N2CCN(CCO)CC2)n1` [dasatinib] showed an IC50 of over 1000 nM.
